Assays:
Ca9-22 = assay: cells; assay type: functional, cell-based, Homo sapiens; conditions: Homo sapiens, Ca9-22;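 further: growth inhibition of Ca9-22 cells, read out with a cell viability assay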
Description: SANGER: Inhibition of human Ca9-22 cell growth in a cell viability assay.

D283 Med = assay: cells; assay type: functional, cell-based, Homo sapiens; conditions: Homo sapiens, D283 Med
Description: SANGER: Inhibition of human D-283MED cell growth in a cell viability assay.

Daudi = assay: cells; assay type: functional, cell-based; conditions: Homo sapiens;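 further: growth inhibition of Daudi cells, read out by a viability assay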
Description: SANGER: Inhibition of human Daudi cell growth in a cell viability assay.

DoTc2-4510 = assay: cells; assay type: functional, cell-based, Homo sapiens; conditions: Homo sapiens, DoTc2-4510
EB-3 = assay: cells; assay type: functional, cell-based; conditions: Homo sapiens;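 further: human EB-3 cells, growth inhibition read out via a cell viability assay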
Description: SANGER: Inhibition of human EB-3 cell growth in a cell viability assay.

ECC4 = assay: cells; assay type: functional, cell-based; conditions: Homo sapiens;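 further: growth inhibition of ECC4 cells, read out with a cell viability assay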
Description: SANGER: Inhibition of human ECC4 cell growth in a cell viability assay.

G-361 = assay: cells; assay type: functional, cell-based, Homo sapiens; conditions: Homo sapiens, G-361
G-402 = assay: cells; assay type: functional, cell-based, Homo sapiens; conditions: Homo sapiens, G-402
Description: SANGER: Inhibition of human G-402 cell growth in a cell viability assay.

GI-1 = assay: cells; assay type: functional, cell-based, Homo sapiens; conditions: Homo sapiens, GI-1;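 further: growth inhibition of human GI-1 cells, measured with a cell viability readout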
Description: SANGER: Inhibition of human GI-1 cell growth in a cell viability assay.

IMR-5 = assay: cells; assay type: functional, cell-based; conditions: Homo sapiens;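 further: growth inhibition of human IMR-5 cells, read out with a cell viability assay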
Description: SANGER: Inhibition of human IMR-5 cell growth in a cell viability assay.

K052 = assay: cells; assay type: functional, cell-based; conditions: Homo sapiens;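 further: Read-out from a cell viability assay, IC50 reflecting suppression of K052 cell growth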
Description: SANGER: Inhibition of human K052 cell growth in a cell viability assay.

KALS-1 = assay: cells; assay type: functional, cell-based, Homo sapiens; conditions: Homo sapiens, KALS-1;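 further: growth inhibition of KALS-1 cells, determined with a cell viability assay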
Description: SANGER: Inhibition of human KALS-1 cell growth in a cell viability assay.

KARPAS-422 = assay: cells; assay type: functional, cell-based; conditions: Homo sapiens
Description: SANGER: Inhibition of human KARPAS-422 cell growth in a cell viability assay.

KMS-12-PE = assay: cells; assay type: functional, cell-based; conditions: Homo sapiens;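 further: growth inhibition of human KMS-12-PE cells, measured with a cell viability assay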
Description: SANGER: Inhibition of human KMS-12-PE cell growth in a cell viability assay.

KU-19-19 = assay: cells; assay type: functional, cell-based, Homo sapiens; conditions: Homo sapiens, KU-19-19
Description: SANGER: Inhibition of human KU-19-19 cell growth in a cell viability assay.

KURAMOCHI = assay: cells; assay type: functional, cell-based; conditions: Homo sapiens;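 further: growth inhibition of KURAMOCHI cells, read out with a cell viability assay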
Description: SANGER: Inhibition of human KURAMOCHI cell growth in a cell viability assay.

L-540 = assay: cells; assay type: functional, cell-based; conditions: Homo sapiens;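 further: growth inhibition of the human L-540 cell line, read out with a viability assay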
Description: SANGER: Inhibition of human L-540 cell growth in a cell viability assay.

LB647-SCLC = assay: cells; assay type: functional, cell-based; conditions: Homo sapiens;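 further: cell growth inhibition, read out by a viability assay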
Description: SANGER: Inhibition of human LB647-SCLC cell growth in a cell viability assay.

Lu-65 = assay: cells; assay type: functional, cell-based; conditions: Homo sapiens;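 further: growth inhibition of Lu-65 cancer cells, read out by a cell viability assay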
Description: SANGER: Inhibition of human LU-65 cell growth in a cell viability assay.

MRK-nu-1 = assay: cells; assay type: functional, cell-based; conditions: Homo sapiens;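 further: cell viability assay measuring growth suppression of human MRK-nu-1 cells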
Description: SANGER: Inhibition of human MRK-nu-1 cell growth in a cell viability assay.

NB12 = assay: cells; assay type: functional, cell-based, Homo sapiens; conditions: Homo sapiens, NB12;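 further: growth inhibition of human NB12 cells, read out by a cell viability assay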
Description: SANGER: Inhibition of human NB12 cell growth in a cell viability assay.

NCI-H1299 = assay: cells; assay type: functional, cell-based, Homo sapiens; conditions: Homo sapiens, NCI-H1299;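 further: growth inhibition of human NCI-H1299 cells, read out by a cell viability assay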
Description: SANGER: Inhibition of human NCI-H1299 cell growth in a cell viability assay.

NCI-H1436 = assay: cells; assay type: functional, cell-based; conditions: Homo sapiens;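 further: growth suppression of human NCI-H1436 cells, determined with a cell viability readout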
Description: SANGER: Inhibition of human NCI-H1436 cell growth in a cell viability assay.

NCI-H1694 = assay: cells; assay type: functional, cell-based; conditions: Homo sapiens;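 further: cell viability assay measuring inhibition of growth in human NCI-H1694 cells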
Description: SANGER: Inhibition of human NCI-H1694 cell growth in a cell viability assay.

NCI-H1703 = assay: cells; assay type: functional, cell-based, Homo sapiens; conditions: Homo sapiens, NCI-H1703;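 further: growth inhibition of NCI-H1703 cells, read out via a cell viability assay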
Description: SANGER: Inhibition of human NCI-H1703 cell growth in a cell viability assay.

NCI-H1963 = assay: cells; assay type: functional, cell-based; conditions: Homo sapiens
Description: SANGER: Inhibition of human NCI-H1963 cell growth in a cell viability assay.

NCI-H2009 = assay: cells; assay type: functional, cell-based, Homo sapiens; conditions: Homo sapiens, NCI-H2009;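 further: cell viability assay measuring inhibition of NCI-H2009 cell growth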
Description: SANGER: Inhibition of human NCI-H2009 cell growth in a cell viability assay.

NCI-H2081 = assay: cells; assay type: functional, cell-based; conditions: Homo sapiens;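 further: growth inhibition of human NCI-H2081 cells, read out with a cell viability assay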
Description: SANGER: Inhibition of human NCI-H2081 cell growth in a cell viability assay.

NCI-H2141 = assay: cells; assay type: functional, cell-based; conditions: Homo sapiens;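 further: growth inhibition of human NCI-H2141 cells, read out with a cell viability assay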
Description: SANGER: Inhibition of human NCI-H2141 cell growth in a cell viability assay.

NCI-H345 = assay: cells; assay type: functional, cell-based; conditions: Homo sapiens;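 further: growth inhibition of NCI-H345 cells measured with a cell viability assay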
Description: SANGER: Inhibition of human NCI-H345 cell growth in a cell viability assay.

NCI-H524 = assay: cells; assay type: functional, cell-based; conditions: Homo sapiens;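 further: growth inhibition of human NCI-H524 cells, read out through a cell viability assay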
Description: SANGER: Inhibition of human NCI-H524 cell growth in a cell viability assay.

NCI-H889 = assay: cells; assay type: functional, cell-based; conditions: Homo sapiens;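 further: cell growth inhibition of the cell line, read out with a viability assay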
Description: SANGER: Inhibition of human NCI-H889 cell growth in a cell viability assay.

OAW-28 = assay: cells; assay type: functional, cell-based, Homo sapiens; conditions: Homo sapiens, OAW-28;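 further: growth inhibition of OAW-28 cells, read out with a cell viability assay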
Description: SANGER: Inhibition of human OAW-28 cell growth in a cell viability assay.

OAW-42 = assay: cells; assay type: functional, cell-based, Homo sapiens; conditions: Homo sapiens, OAW-42;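 further: growth inhibition of OAW-42 cells, read out with a cell viability assay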
Description: SANGER: Inhibition of human OAW-42 cell growth in a cell viability assay.

PANC-08-13 = assay: cells; assay type: functional, cell-based, Homo sapiens; conditions: Homo sapiens, PANC-08-13
Description: SANGER: Inhibition of human PANC-08-13 cell growth in a cell viability assay.

REH = assay: cells; assay type: functional, cell-based; conditions: Homo sapiens;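 further: growth inhibition of REH cells determined with a cell viability read-out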
Description: SANGER: Inhibition of human REH cell growth in a cell viability assay.

Raji = assay: cells; assay type: functional, cell-based; conditions: Homo sapiens;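 further: cell viability assay measuring inhibition of Raji cell growth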
Description: SANGER: Inhibition of human Raji cell growth in a cell viability assay.

SAS = assay: cells; assay type: functional, cell-based, Homo sapiens; conditions: Homo sapiens, SAS;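 further: growth inhibition of SAS cells, read out with a cell viability assay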
Description: SANGER: Inhibition of human SAS cell growth in a cell viability assay.

SCC-3 = assay: cells; assay type: functional, cell-based; conditions: Homo sapiens;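 further: cell viability assay measuring inhibition of SCC-3 cell growth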
Description: SANGER: Inhibition of human SCC-3 cell growth in a cell viability assay.

SNU-C1 = assay: cells; assay type: functional, cell-based; conditions: Homo sapiens;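 further: growth inhibition of SNU-C1 human cells, read out by a cell viability assay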
Description: SANGER: Inhibition of human SNU-C1 cell growth in a cell viability assay.

SR = assay: cells; assay type: functional, cell-based; conditions: Homo sapiens
Description: SANGER: Inhibition of human SR cell growth in a cell viability assay.

ST486 = assay: SANGER: Inhibition of human ST486 cell growth in a cell viability assay.; assay type: functional, cell-based
SUP-T1 = assay: cells; assay type: functional, cell-based; conditions: Homo sapiens;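 further: growth inhibition of human SUP-T1 cells, read out as cell viability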
Description: SANGER: Inhibition of human SUP-T1 cell growth in a cell viability assay.

SW1990 = assay: cells; assay type: functional, cell-based, Homo sapiens; conditions: Homo sapiens, SW1990
Description: SANGER: Inhibition of human SW1990 cell growth in a cell viability assay.

A4-Fuk = assay: cells; assay type: functional, cell-based; conditions: Homo sapiens;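 further: growth inhibition of A4-Fuk cells, read out by a cell viability assay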
Description: SANGER: Inhibition of human A4-Fuk cell growth in a cell viability assay.

ARH-77 = assay: cells; assay type: functional, cell-based; conditions: Homo sapiens;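 further: growth inhibition of ARH-77 cells, read out by a cell viability assay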
Description: SANGER: Inhibition of human ARH-77 cell growth in a cell viability assay.

BC1 cell line = assay: SANGER: Inhibition of human BC-1 cell growth in a cell viability assay.; assay type: functional, cell-based
BOKU = assay: cells; assay type: functional, cell-based; conditions: Homo sapiens;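 further: growth inhibition of the human BOKU cell line, read out by a cell viability assay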
Description: SANGER: Inhibition of human BOKU cell growth in a cell viability assay.

CA46 = assay: cells; assay type: functional, cell-based; conditions: Homo sapiens;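 further: growth inhibition of human CA46 cells, read out by a cell viability assay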
Description: SANGER: Inhibition of human CA46 cell growth in a cell viability assay.

CAKI-1 = assay: cells; assay type: functional, cell-based, Homo sapiens; conditions: Homo sapiens, CAKI-1;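 further: growth inhibition of CAKI-1 cells, measured by a cell viability assay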
Description: SANGER: Inhibition of human CAKI-1 cell growth in a cell viability assay.

TE-15 = assay: cells; assay type: functional, cell-based; conditions: Homo sapiens;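 further: cell viability readout of growth inhibition in TE-15 cells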
Description: SANGER: Inhibition of human TE-15 cell growth in a cell viability assay.

Measured: IC50

C[C@]1(O)C[C@@H](c2nc(-c3ccc4ccc(-c5ccccc5)nc4c3)c3c(N)nccn32)C1 [LINSITINIB]
28.1 nM: A4-Fuk
864 nM: PANC-08-13
1770 nM: LB647-SCLC
> 2560 nM: Ca9-22 | D283 Med | Daudi | DoTc2-4510 | EB-3 | ECC4 | G-361 | G-402 | GI-1 | IMR-5 | K052 | KALS-1 | KARPAS-422 | KMS-12-PE | KU-19-19 | KURAMOCHI | L-540 | Lu-65 | MRK-nu-1 | NB12 | NCI-H1299 | NCI-H1436 | NCI-H1694 | NCI-H1703 | NCI-H1963 | NCI-H2009 | NCI-H2081 | NCI-H2141 | NCI-H345 | NCI-H524 | NCI-H889 | OAW-28 | OAW-42 | REH | Raji | SAS | SCC-3 | SR | ST486 | SUP-T1 | SW1990 | ARH-77 | BC1 cell line | BOKU | CA46 | CAKI-1 | TE-15
293 nM: SNU-C1

C=CCc1cccc(/C=N/NC(=O)CN2CCN(Cc3ccccc3)CC2)c1O [PAC-1]
967 nM: ST486
944 nM: REH
2130 nM: Raji
2200 nM: L-540
> 2560 nM: Ca9-22 | D283 Med | DoTc2-4510 | EB-3 | ECC4 | G-402 | GI-1 | IMR-5 | K052 | KALS-1 | KARPAS-422 | KMS-12-PE | KU-19-19 | KURAMOCHI | LB647-SCLC | Lu-65 | MRK-nu-1 | NB12 | NCI-H1299 | NCI-H1436 | NCI-H1694 | NCI-H1703 | NCI-H1963 | NCI-H2009 | NCI-H2081 | NCI-H2141 | NCI-H345 | NCI-H524 | NCI-H889 | OAW-28 | OAW-42 | PANC-08-13 | SAS | SCC-3 | SNU-C1 | SR | SW1990 | A4-Fuk | ARH-77 | BOKU | CAKI-1 | TE-15
1000 nM: SUP-T1
1190 nM: G-361
2020 nM: CA46
947 nM: Daudi
1100 nM: BC1 cell line
